The nature of this data set: gradient 5% acetonitrile 3 min, to 50% in 2 min, to 85% in 15 min, held 3 min, 100 µL/min. The conditions noted are these: column: Zorbax Extend-C18 2.1 x 50 mm; eluents: water / acetonitrile, 0.1% formic acid. In outline: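 Retention time was recorded from adduct peaks, which were picked computationally and each inspected manually. Pure standards ran in mixtures of ~100 molecules on HPLC coupled to a quadrupole time-of-flight mass spectrometer, in positive and negative ionization mode, through a Zorbax Extend-C18 column (2.1 × 50 mm, 1.8 μm) at 100 μL/min. Eluents were water and acetonitrile, each with 0.1% formic acid.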
For `Cc1ccc(CNC(=O)C2CCN(C(=O)c3ncn4c3COC(c3ccccc3)C4)CC2)cc1` (centres undefined), the RP-LC retention time turned out to be 782 s.
Next, `CCC(=O)N1CCc2cc(N3CC(C(=O)Nc4ccccc4OC)CC3=O)ccc21` (centres undefined): 758 s.
Turning to `O=C1CC(c2nc(-c3ccc(C(F)(F)F)cc3)no2)CN1c1ccc2c(c1)OCCO2` (centres undefined), the RP-LC retention time amounted to 1030 s.
`CC(C)Cc1cc(-c2nn3c(-c4cccc(F)c4)nnc3s2)n[nH]1` yielded an RP-LC retention time of 993 s.
As to `CN(C)c1ccc(CNC(=O)CCc2c(-c3ccc(Br)cc3)nc3ccccn23)cc1`, the RP-LC retention time was 599 s.
The same measure for `COc1ccc(-c2noc(-c3ccc(NC(=O)c4cccs4)cc3)n2)cc1`: 1140 s; for `CC(=O)NC(C)c1nc(-c2ccccc2Cl)no1` (centres undefined): 687 s; for `O=C(Nc1cc(F)ccc1F)c1c(O)c2cccnc2n(Cc2ccccc2)c1=O`: 1170 s.
Next, `COc1c(/C=N/NC(N)=O)c(OC)c(OC)c2c1CCO2`: 1080 s.
Next, `COc1ccc2[nH]c(=O)c(CCC(=O)Nc3ccc(OC)c(OC)c3)cc2c1`: 666 s.
`O=C(CCc1nnc2c3cc(-c4ccc(F)cc4)nn3ccn12)NCCN1CCCC1` had an RP-LC retention time of 605 s.
Compound `CC(=O)N1CCCC1c1nc(C2CN(C(=O)CCn3cc(C)cn3)C2)no1` (centres undefined) had an RP-LC retention time of 604 s.
Consider `COc1ccc(-c2nn(Cc3ccccc3F)c(=O)c3nc(C)sc23)cc1OC`, for which the RP-LC retention time turned out to be 808 s.
Next, `CCCCCCNCc1ccc2c(c1)n(C)c(=O)n2C`: 604 s; `CCCn1ccc2sc(C)c(C(=O)NCc3ccc(F)cc3F)c2c1=O`: 925 s; `O=C(/C=C/c1cccnc1)/C=C/c1cccnc1`: 635 s.
The same measure for `CC(C)NC(=O)c1ccc(OCC2CCCN(C(=O)c3ccc(F)cc3)C2)cc1` (centres undefined): 844 s; for `CCn1cc(CCNC(=O)CC2CCCC2)c2cccnc21`: 701 s; for `Cc1c(Cl)cccc1Nc1c(-c2ccc(Cl)cc2)nc2cnccn12`: 1120 s.
The same measure for `C#CCOCC1CCN(C(=O)CC2CCCCC2)CC1`: 864 s; for `O=C(Nc1ccc(Br)cc1)C1CCCN1S(=O)(=O)c1ccc(F)cc1` (centres undefined): 967 s.
In the case of `CCOCCCNC(=O)N1CCc2cc(-c3ccc(C(=O)N4CCOCC4)cc3)ccc21`, the RP-LC retention time came out at 608 s.
Turning to `CC(C)CNC(=O)c1cc(=O)[nH]c2ccccc12`, the RP-LC retention time was 729 s.
The same measure for `CN(CC1CCOCC1)C(=O)Cc1ccc(F)cc1`: 687 s; for `O=C(Nc1ccccc1)N1CCC(OCc2ccccc2)C1` (centres undefined): 837 s; for `Cc1ccc(NC(=O)C2CCCN(c3ncnc4c3nc3n4CCCCC3)C2)cc1Cl` (centres undefined): 958 s.
Take `O=C(NCc1csc(C2CCCN(C(=O)C3CC3)C2)n1)C1CCC1` (centres undefined): the RP-LC retention time was 667 s.
Next, `COc1cc(-c2nc3ncccn3c2NCc2ccc(C)cc2)ccc1OC(C)C`: 811 s; `COc1ccc(-c2ncccc2CNS(=O)(=O)c2cc(C)cc(C)c2)cc1`: 717 s; `Cc1ccccc1CNC(=O)C1CCCN(c2nnc(C)c3c(C)n(-c4ccc(Cl)cc4)nc23)C1` (centres undefined): 784 s.
In turn, `O=C(CCCc1nnc2c(=O)n(-c3ccc(Cl)cc3)ccn12)N1CCN(c2ccccn2)CC1` displayed an RP-LC retention time of 595 s.
For the compound `O=C(NCc1ccc2c(c1)OCO2)C1CCN(C(=O)c2cccc(F)c2)CC1`, the RP-LC retention time turned out to be 719 s.
For `CCn1cc(-c2nc(C)c(C(=O)Nc3cccc(OC)c3)s2)c2cccnc21`, the RP-LC retention time is 983 s.
The same measure for `O=C(CN1CCN(Cc2ccc(F)cc2)C1=O)NCc1ccc(N2CCOCC2)cc1`: 712 s; for `O=C(NCc1ccccn1)c1csc(Nc2ccc(OC(F)(F)F)cc2)n1`: 674 s; for `CC(=O)N1CCc2cc(-c3ccc(C(=O)NCCCN4CCCCC4)cc3)ccc21`: 616 s.
`CCOc1ccccc1-c1noc(-c2nnn(Cc3nc(-c4ccccc4OC)oc3C)c2C)n1`: the RP-LC retention time was 1070 s.
The same measure for `O=C(NC1CCCC1)C1c2ccccc2CC(=O)N1Cc1ccccc1` (centres undefined): 856 s.
The same measure for `Cc1nc2cc(N3CC(C(=O)Nc4ccc(C)c(C)c4)CC3=O)ccc2o1` (centres undefined): 614 s; for `COc1ccccc1-c1csc(-c2nnn(-c3ccc(C)cc3)c2N)n1`: 1160 s; for `COc1ccc2c3c([nH]c2c1)[C@H](CC(C)C)N1C(=O)[C@H](CCC(=O)OC(C)(C)C)NC(=O)[C@@H]1C3`: 1100 s.
The same measure for `O=C(Nc1cnc(-c2cccc(Cl)c2)nc1)c1ccc(Br)o1`: 1140 s; for `COc1ccc(Cl)cc1NC(=O)Cn1ncc2c(c1=O)N(CC1CC1)C(=O)CS2`: 878 s.
In turn, `COc1ccc(C(=O)N2CCCC2COc2ccc(C(=O)N3CCCC3)cc2)cc1` (centres undefined) yielded an RP-LC retention time of 800 s.
The same measure for `COC(=O)c1ccc(-c2csc(NC(=O)C3CCCC3)n2)cc1`: 942 s; for `COc1ccc(OC)c(CNC(=O)CCc2c(C)nn(-c3cc(N(C)C)ncn3)c2C)c1`: 726 s; for `Cc1ccc(-c2nnc(-c3cccnc3N3CCN(C(=O)c4ccc(Br)o4)CC3)o2)cc1`: 1020 s.
The same measure for `Cc1nc2nc(-c3ccc(C(C)(C)C)cc3)nn2c(C)c1CC(=O)N1CCN(C)CC1`: 682 s; for `Cc1nc2ccc(C(=O)N3CCCCCC3)cc2nc1C`: 605 s.
Turning to `Cc1nnc(N2CCCC(C(=O)NC3CCCCCC3)C2)c2nn(-c3ccc(Cl)cc3)c(C)c12` (centres undefined), the RP-LC retention time is 831 s.
In turn, `Cc1nnc2c(NC(=O)Cc3cccc(C(F)(F)F)c3)cccn12` gave an RP-LC retention time of 785 s.
On to `COCc1noc([C@@H]2CN(Cc3cn(C)c4ccccc34)C[C@H]2CO)n1`, for which the RP-LC retention time is 616 s.
`Cn1nccc1-c1cccc(-c2noc(Cc3ccccc3F)n2)c1` had an RP-LC retention time of 1050 s.
On to `COc1cccc(NC(=O)NCCCN2CCN(c3ccccc3)CC2)c1OC`, for which the RP-LC retention time is 582 s.
The compound `COc1ccc(OC)c(NC(=O)Cn2cccc2-c2nc(-c3ccc4c(c3)OCO4)no2)c1` showed an RP-LC retention time of 1010 s.
With `Cc1cc(C)n2c(C)nnc2c1`, the RP-LC retention time came to 570 s.
Next, `O=C1NCCCCCN(C(=O)CN2CCCCCC2)[C@H]2CCC[C@@H]12`: 567 s; `CC1CCCCN1C(=O)c1ccc2c(c1)Sc1ncccc1C(=O)N2C(C)C` (centres undefined): 810 s.
Regarding `Cn1cc(CCNS(=O)(=O)c2ccc(Br)s2)c2cccnc21`, the RP-LC retention time was 779 s.
As to `Cc1ccc(CNS(=O)(=O)c2cc(-c3[nH]ncc3C(=O)N3CCCC3)oc2C)cc1`, the RP-LC retention time amounted to 725 s.
Next, `COc1cc(Nc2c(C(=O)N3CCCC3)cnc3nc(C)ccc23)cc(OC)c1`: 616 s; `CCCCN1C(=O)C(NC(=O)c2ccccc2OC)(C(F)(F)F)C(C(C)=O)=C1C` (centres undefined): 976 s; `O=C(NCc1cccs1)C(=O)NCC1(c2ccc(F)cc2)CC1`: 727 s.
The same measure for `Cc1cc(-c2nnc(-c3ccc(F)cc3)o2)c(C)n1CC(=O)NC1CCCC1`: 908 s.
For the compound `CCn1cnc(S(=O)(=O)N2CCC(C(=O)NCCc3nc4ccc(C)cc4[nH]3)CC2)c1`, the RP-LC retention time is 589 s.
Next, `Brc1cn2c(Nc3ccc4c(c3)OCCO4)c(-c3ccccc3)nc2cn1`: 916 s.
The same measure for `COc1ccc(Br)c2c1-c1nc(NC(=O)c3ccccc3F)sc1C2`: 1130 s.
`CCN1C(=O)COc2ccc(-c3noc(-c4ccc(C)c(C)c4)n3)cc21` gave an RP-LC retention time of 1300 s.
The same measure for `COCCC(=O)N1CCCn2nc(-c3cccc(OC)c3)cc2C1`: 644 s; for `CCOC(=O)CNC(=O)N1CCc2cc(-c3ccc(C(=O)N4CCOCC4)cc3)ccc21`: 723 s; for `CCc1cccc(NC(=O)Cn2cnc3c(sc4nc(-c5ccccc5)ccc43)c2=O)c1`: 1100 s.
In the case of `c1ccc(-c2nc3ccccn3c2Nc2ccc3c(c2)OCCO3)cc1`, the RP-LC retention time was 665 s.
Next, `Cn1ncc(NC(=O)c2ccc(Cl)cc2)c(N2CCOCC2)c1=O`: 771 s; `CSc1ccccc1CN1CCC(CNC(=O)c2cc(=O)c3ccccc3o2)CC1`: 564 s.
The same measure for `O=C(Nc1ccc2c(c1)OCCO2)N1CC2(CCCCC2)CC1COc1ccncc1` (centres undefined): 604 s; for `O=C(NC1CC1)c1ccc(OCC2CCN(C(=O)C3(c4ccccc4)CC3)CC2)cc1`: 859 s; for `CCS(=O)(=O)N1CC(=O)N(c2cc(C)cc(C)c2)C(C)(C(=O)NCc2ccccc2)C1` (centres undefined): 868 s.
The compound `O=C(Nc1cccc(C(F)(F)F)c1)NC1CCN(c2cc(N3CCCC3)cnn2)C1` (centres undefined) gave an RP-LC retention time of 617 s.
The compound `Cc1ccc(CN2CCC(CNC(=O)c3noc(C)c3Cn3nc(C)cc3C)C2)cc1` (centres undefined) returned an RP-LC retention time of 659 s.

These data come from the METLIN SMRT retention time set (Domingo-Almenara et al. 2019).
